According to the NIST ThermoML archive (doi:10.1016/j.jct.2012.03.011):
± gives the expanded uncertainty stated by the source.

What was measured:
[1] = xn = mol fraction of the nth substance listed; settings: 298.15 K, 101 kPa, Liquid, Vibrating tube method
[2] = excess molar enthalpy (molar enthalpy of mixing); xn = mol fraction of the nth substance listed; settings: 298.15 K, 101 kPa, Liquid, Calvet calorimetry
[3] = 298.15 K; 101.33 kPa; Liquid; Vibrating tube method
[4] = refractive index (Na D-line) (dimensionless); settings: 298.15 K; 101.33 kPa; Liquid; Standard Abbe refractometry

CCCCCCCCCCCC [dodecane] + CCOC(C)=O
Settings | excess molar enthalpy [kcal/mol] | mass density [kg/m3]
[1], x1 = 0.097 | – | 860.06 ± 0.29
[1], x1 = 0.146 | – | 846.23 ± 0.3
[1], x1 = 0.1976 | – | 833.46 ± 0.31
[1], x1 = 0.2508 | – | 821.88 ± 0.32
[1], x1 = 0.2979 | – | 812.79 ± 0.33
[1], x1 = 0.3903 | – | 797.68 ± 0.36
[1], x1 = 0.4943 | – | 783.92 ± 0.39
[1], x1 = 0.6 | – | 772.56 ± 0.43
[1], x1 = 0.6909 | – | 764.45 ± 0.46
[1], x1 = 0.7392 | – | 760.65 ± 0.48
[1], x1 = 0.7931 | – | 756.85 ± 0.5
[1], x1 = 0.8213 | – | 754.91 ± 0.51
[1], x1 = 0.8798 | – | 751.38 ± 0.53
[1], x1 = 0.9374 | – | 748.08 ± 0.55
[2], x1 = 0.0232 | 0.0564 ± 0.00143 | –
[2], x1 = 0.0541 | 0.12 ± 0.00263 | –
[2], x1 = 0.0898 | 0.184 ± 0.00406 | –
[2], x1 = 0.1316 | 0.246 ± 0.00526 | –
[2], x1 = 0.18 | 0.306 ± 0.00645 | –
[2], x1 = 0.2292 | 0.353 ± 0.00765 | –
[2], x1 = 0.279 | 0.389 ± 0.00837 | –
[2], x1 = 0.3296 | 0.416 ± 0.00884 | –
[2], x1 = 0.3789 | 0.434 ± 0.00932 | –
[2], x1 = 0.4062 | 0.442 ± 0.00932 | –
[2], x1 = 0.4261 | 0.444 ± 0.00956 | –
[2], x1 = 0.4718 | 0.448 ± 0.00956 | –
[2], x1 = 0.4736 | 0.446 ± 0.00956 | –
[2], x1 = 0.5534 | 0.43 ± 0.00908 | –
[2], x1 = 0.647 | 0.385 ± 0.00813 | –
[2], x1 = 0.7424 | 0.313 ± 0.00669 | –
[2], x1 = 0.8396 | 0.214 ± 0.00454 | –
[2], x1 = 0.9339 | 0.101 ± 0.00215 | –

CCOC(C)=O [ethyl acetate]
Settings | mass density [kg/m3] | refractive index
[3] | 894.34 ± 0.23 | –
[4] | – | 1.37 ± 0.0005

CCCCCCCCCCCC [dodecane]
Settings | mass density [kg/m3] | refractive index
[3] | 745.1 ± 0.58 | –
[4] | – | 1.4192 ± 0.0006

CCCCC(=O)OCC [ethyl pentanoate] + CCOC(C)=O
Settings | excess molar enthalpy [kcal/mol] | mass density [kg/m3]
[1], x1 = 0.0482 | – | 892.36 ± 0.23
[1], x1 = 0.0954 | – | 890.53 ± 0.23
[1], x1 = 0.148 | – | 888.63 ± 0.23
[1], x1 = 0.1941 | – | 887.05 ± 0.23
[1], x1 = 0.3047 | – | 883.64 ± 0.24
[1], x1 = 0.4 | – | 881.02 ± 0.24
[1], x1 = 0.4921 | – | 878.73 ± 0.24
[1], x1 = 0.5717 | – | 876.92 ± 0.24
[1], x1 = 0.6556 | – | 875.16 ± 0.24
[1], x1 = 0.6946 | – | 874.41 ± 0.24
[1], x1 = 0.7526 | – | 873.29 ± 0.24
[1], x1 = 0.7924 | – | 872.6 ± 0.2
[1], x1 = 0.8362 | – | 871.84 ± 0.24
[1], x1 = 0.8651 | – | 871.36 ± 0.24
[1], x1 = 0.9263 | – | 870.36 ± 0.24
[1], x1 = 0.9377 | – | 870.21 ± 0.24
[2], x1 = 0.0627 | 0.0117 ± 0.000478 | –
[2], x1 = 0.1347 | 0.0213 ± 0.000478 | –
[2], x1 = 0.2071 | 0.0282 ± 0.000717 | –
[2], x1 = 0.2799 | 0.0332 ± 0.000717 | –
[2], x1 = 0.3493 | 0.0351 ± 0.000717 | –
[2], x1 = 0.4144 | 0.0363 ± 0.000956 | –
[2], x1 = 0.4736 | 0.0375 ± 0.000956 | –
[2], x1 = 0.5198 | 0.0368 ± 0.000956 | –
[2], x1 = 0.561 | 0.0361 ± 0.000956 | –
[2], x1 = 0.6071 | 0.0347 ± 0.000717 | –
[2], x1 = 0.6645 | 0.0318 ± 0.000717 | –
[2], x1 = 0.7376 | 0.0272 ± 0.000717 | –
[2], x1 = 0.8193 | 0.021 ± 0.000478 | –
[2], x1 = 0.8904 | 0.0139 ± 0.000478 | –
[2], x1 = 0.9529 | 0.00717 ± 0.000239 | –

CCCCC(=O)OCC [ethyl pentanoate]
Settings | mass density [kg/m3] | refractive index
[3] | 869.28 ± 0.23 | –
[4] | – | 1.3981 ± 0.0005

CCCCC(=O)OCC [ethyl pentanoate] + CCCCCCCCCCCC
Settings | excess molar enthalpy [kcal/mol] | mass density [kg/m3]
[1], x2 = 0.0505 | – | 858.92 ± 0.26
[1], x2 = 0.1024 | – | 849.09 ± 0.28
[1], x2 = 0.1522 | – | 840.25 ± 0.29
[1], x2 = 0.1998 | – | 832.32 ± 0.3
[1], x2 = 0.2496 | – | 824.53 ± 0.32
[1], x2 = 0.3013 | – | 816.7 ± 0.33
[1], x2 = 0.4039 | – | 802.81 ± 0.37
[1], x2 = 0.502 | – | 790.76 ± 0.4
[1], x2 = 0.6026 | – | 779.67 ± 0.43
[1], x2 = 0.6547 | – | 774.3 ± 0.45
[1], x2 = 0.6992 | – | 769.94 ± 0.47
[1], x2 = 0.7485 | – | 765.35 ± 0.48
[1], x2 = 0.7982 | – | 760.93 ± 0.5
[1], x2 = 0.847 | – | 756.88 ± 0.52
[1], x2 = 0.8918 | – | 753.23 ± 0.54
[1], x2 = 0.9497 | – | 748.76 ± 0.56
[2], x2 = 0.043 | 0.0459 ± 0.0012 | –
[2], x2 = 0.0928 | 0.0887 ± 0.00191 | –
[2], x2 = 0.1433 | 0.129 ± 0.00287 | –
[2], x2 = 0.1957 | 0.163 ± 0.00359 | –
[2], x2 = 0.2488 | 0.192 ± 0.00406 | –
[2], x2 = 0.3005 | 0.214 ± 0.00454 | –
[2], x2 = 0.3181 | 0.219 ± 0.00478 | –
[2], x2 = 0.3511 | 0.23 ± 0.00502 | –
[2], x2 = 0.3548 | 0.232 ± 0.00502 | –
[2], x2 = 0.3978 | 0.242 ± 0.00526 | –
[2], x2 = 0.446 | 0.25 ± 0.00526 | –
[2], x2 = 0.5012 | 0.252 ± 0.0055 | –
[2], x2 = 0.5648 | 0.247 ± 0.00526 | –
[2], x2 = 0.6392 | 0.23 ± 0.00502 | –
[2], x2 = 0.7228 | 0.197 ± 0.0043 | –
[2], x2 = 0.8127 | 0.148 ± 0.00311 | –
[2], x2 = 0.9036 | 0.0896 ± 0.00191 | –
